Target: human JAK1 (a.a. 837-1142)
Assay: In vitro JAK kinase assay (HTRF, phosphorylation of a biotinylated peptide), JAK1
Format: biochemical
Conditions: measured at 1 mM ATP; JAK2 IC50 / JAK1 IC50
In short: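 N-terminally His-tagged catalytic domains, baculovirus-expressed in insect cells and purified, were used as enzyme. Reactions ran 1 hr at room temperature and were stopped with a mix of 45 mM EDTA, 300 nM SA-APC and 6 nM Eu-Py20. The HTRF signal was read after 40 min of antibody binding.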

IC50 Ratio JAK2/JAK1 | Structure (SMILES)
9.0 | COc1ccccc1NC(=O)N1CCC(N2CC(CC#N)(n3ccc(-c4ncnc5[nH]ccc45)c3)C2)CC1 [Example 288, 4-{3-(cyanomethyl)-3-[3-(7H-pyrrolo[2,3-d]pyrimidin-4-yl)-1H-pyrrol-1-yl]azetidin-1-yl}-N-(2-methoxyphenyl)piperidine-1-carboxamide]
9.1 | N#CCC1(n2ccc(-c3ncnc4[nH]ccc34)c2)CN(C2CCN(C(=O)Nc3ncccc3F)CC2)C1 [Example 292, 4-{3-(cyanomethyl)-3-[3-(7H-pyrrolo[2,3-d]pyrimidin-4-yl)-1H-pyrrol-1-yl]azetidin-1-yl}-N-(3-fluoropyridin-2-yl)piperidine-1-carboxamide]
3.4 | N#CCC1(n2ccc(-c3ncnc4[nH]ccc34)c2)CN(C2CCN(C(=O)Nc3ccc(Cl)cc3C#N)CC2)C1 [Example 293, 4-{3-(cyanomethyl)-3-[3-(7H-pyrrolo[2,3-d]pyrimidin-4-yl)-1H-pyrrol-1-yl]azetidin-1-yl}-N-(4-chloro-2-cyanophenyl)piperidine-1-carboxamide]
5.1 | N#CCC1(n2cc(-c3ccnc4[nH]ccc34)cn2)CN(C2CCN(C(=O)c3ccc(C#N)cc3F)CC2)C1 [Example 295, 4-[(4-{3-(cyanomethyl)-3-[4-(1H-pyrrolo[2,3-b]pyridin-4-yl)-1H-pyrazol-1-yl]azetidin-1-yl}piperidin-1-yl)cabonyl]-3-fluorobenzonitrile]
4.6 | N#CCC1(n2cc(-c3ccnc4[nH]ccc34)cn2)CN(C2CCN(C(=O)c3ccc(O)c(F)c3)CC2)C1 [Example 296]
10.0 | N#CCC1(n2cc(-c3ccnc4[nH]ccc34)cn2)CN(C2CCN(C(=O)c3ccc(O)cc3F)CC2)C1 [Example 297, {1-[1-(2-fluoro-4-hydroxybenzoyl)piperidin-4-yl]-3-[4-(1H-pyrrolo[2,3-b]pyridin-4-yl)-1H-pyrazol-1-yl]azetidin-3-yl}acetonitrile]
2.8 | N#CCC1(n2cc(-c3ccnc4[nH]ccc34)cn2)CN(C2CCN(C(=O)c3cc(C(F)(F)F)ncc3Cl)CC2)C1 [Example 298, {1-{1-[5-chloro-2-(trifluoromethyl)isonicotinoyl]piperidin-4-yl}-3-[4-(1H-pyrrolo[2,3-b]pyridin-4-yl)-1H-pyrazol-1-yl]azetidin-3-yl}acetonitrile]
6.6 | N#CCC1(n2cc(-c3ccnc4[nH]ccc34)cn2)CN(C2CCN(C(=O)c3ccnc(C(F)(F)F)n3)CC2)C1 [Example 299, [3-[4-(1H-pyrrolo[2,3-b]pyridin-4-yl)-1H-pyrazol-1-yl]-1-(1-{[2-(trifluoromethyl)pyrimidin-4-yl]carbonyl}piperidin-4-yl)azetidin-3-yl]acetonitrile]
3.3 | N#CCC1(n2cc(-c3ccnc4[nH]ccc34)cn2)CN(C2CCN(C(=O)c3cnc(C(F)(F)F)cn3)CC2)C1 [Example 301, [3-[4-(1H-pyrrolo[2,3-b]pyridin-4-yl)-1H-pyrazol-1-yl]-1-(1-{[5-(trifluoromethyl)pyrazin-2-yl]carbonyl}piperidin-4-yl)azetidin-3-yl]acetonitrile]
6.5 | N#CCC1(n2cc(-c3ccnc4[nH]ccc34)cn2)CN(C2CCN(C(=O)C3CCC(F)(F)CC3)CC2)C1 [Example 302, {1-{1-[(4,4-difluorocyclohexyl)carbonyl]piperidin-4-yl}-3-[4-(1H-pyrrolo[2,3-b]pyridin-4-yl)-1H-pyrazol-1-yl]azetidin-3-yl}acetonitrile]
16.0 | N#CCC1(n2cc(-c3ccnc4[nH]ccc34)cn2)CN(C2CCN(C(=O)Nc3ccc(F)cc3Cl)CC2)C1 [Example 305, N-(2-chloro-4-fluorophenyl)-4-{3-(cyanomethyl)-3-[4-(1H-pyrrolo[2,3-b]pyridin-4-yl)-1H-pyrazol-1-yl]azetidin-1-yl}piperidine-1-carboxamide]
3.5 | COc1ncccc1NC(=O)N1CCC(N2CC(CC#N)(n3cc(-c4ccnc5[nH]ccc45)cn3)C2)CC1 [Example 306, 4-{3-(cyanomethyl)-3-[4-(1H-pyrrolo[2,3-b]pyridin-4-yl)-1H-pyrazol-1-yl]azetidin-1-yl}-N-(2-methoxypyridin-3-yl)piperidine-1-carboxamide]
8.8 | N#CCC1(n2cc(-c3ccnc4[nH]ccc34)cn2)CN(C2CCN(C(=O)Nc3ccncc3C(F)(F)F)CC2)C1 [Example 307, 4-{3-(cyanomethyl)-3-[4-(1H-pyrrolo[2,3-b]pyridin-4-yl)-1H-pyrazol-1-yl]azetidin-1-yl}-N-[3-(trifluoromethyl)pyridin-4-yl]piperidine-1-carboxamide]
5.3 | N#CCC1(n2cc(-c3ccnc4[nH]ccc34)cn2)CN(C2CCN(C(=O)Nc3ccccc3F)CC2)C1 [Example 309, 4-{3-(cyanomethyl)-3-[4-(1H-pyrrolo[2,3-b]pyridin-4-yl)-1H-pyrazol-1-yl]azetidin-1-yl}-N-(2-fluorophenyl)piperidine-1-carboxamide]
9.0 | N#CCC1(n2cc(-c3ccnc4[nH]ccc34)cn2)CN(C2CCN(C(=O)Nc3ccccc3Cl)CC2)C1 [Example 310, N-(2-chlorophenyl)-4-{3-(cyanomethyl)-3-[4-(1H-pyrrolo[2,3-b]pyridin-4-yl)-1H-pyrazol-1-yl]azetidin-1-yl}piperidine-1-carboxamide]
5.3 | N#CCC1(n2cc(-c3ccnc4[nH]ccc34)cn2)CN(C2CCN(C(=O)Nc3ccc(C#N)cc3F)CC2)C1 [Example 312, N-(4-cyano-2-fluorophenyl)-4-{3-(cyanomethyl)-3-[4-(1H-pyrrolo[2,3-b]pyridin-4-yl)-1H-pyrazol-1-yl]azetidin-1-yl}piperidine-1-carboxamide]
11.0 | N#CCC1(n2cc(-c3c(F)cnc4[nH]ccc34)cn2)CN(C2CCN(C(=O)c3ccnc(C(F)(F)F)c3F)CC2)C1 [Example 314, (3-[4-(5-Fluoro-1H-pyrrolo[2,3-b]pyridin-4-yl)-1H-pyrazol-1-yl]-1-{1-[3-fluoro-2-(trifluoromethyl)isonicotinoyl]piperidin-4-yl}azetidin-3-yl)acetonitrile]
9.5 | N#CCC1(n2cc(-c3c(F)cnc4[nH]ccc34)cn2)CN(C2CCN(C(=O)c3cc(F)cc(C#N)c3)CC2)C1 [Example 316, 3-[(4-{3-(cyanomethyl)-3-[4-(5-fluoro-1H-pyrrolo[2,3-b]pyridin-4-yl)-1H-pyrazol-1-yl]azetidin-1-yl}piperidin-1-yl)carbonyl]-5-fluorobenzonitrile]
4.5 | N#CCC1(n2cc(-c3c(F)cnc4[nH]ccc34)cn2)CN(C2CCN(C(=O)c3ccc(C#N)cc3F)CC2)C1 [Example 317, 4-[(4-{3-(cyanomethyl)-3-[4-(5-fluoro-1H-pyrrolo[2,3-b]pyridin-4-yl)-1H-pyrazol-1-yl]azetidin-1-yl}piperidin-1-yl)carbonyl]-3-fluorobenzonitrile]
4.7 | N#CCC1(n2cc(-c3c(F)cnc4[nH]ccc34)cn2)CN(C2CCN(C(=O)c3ccc(F)c(C#N)c3)CC2)C1 [Example 318, 5-[(4-{3-(cyanomethyl)-3-[4-(5-fluoro-1H-pyrrolo[2,3-b]pyridin-4-yl)-1H-pyrazol-1-yl]azetidin-1-yl}piperidin-1-yl)carbonyl]-2-fluorobenzonitrile]
4.0 | N#CCC1(n2cc(-c3c(F)cnc4[nH]ccc34)cn2)CN(C2CCN(C(=O)c3ccc(F)cn3)CC2)C1 [Example 319]
2.8 | N#CCC1(n2cc(-c3c(F)cnc4[nH]ccc34)cn2)CN(C2CCN(C(=O)c3ccncc3F)CC2)C1 [Example 320, {1-[1-(3-fluoroisonicotinoyl)piperidin-4-yl]-3-[4-(5-fluoro-1H-pyrrolo[2,3-b]pyridin-4-yl)-1H-pyrazol-1-yl]azetidin-3-yl}acetonitrile]
3.0 | N#CCC1(n2cc(-c3c(F)cnc4[nH]ccc34)cn2)CN(C2CCN(C(=O)c3c(F)cncc3F)CC2)C1 [Example 321, {1-[1-(3,5-difluoroisonicotinoyl)piperidin-4-yl]-3-[4-(5-fluoro-1H-pyrrolo[2,3-b]pyridin-4-yl)-1H-pyrazol-1-yl]azetidin-3-yl}acetonitrile]
4.7 | N#CCC1(n2cc(-c3c(F)cnc4[nH]ccc34)cn2)CN(C2CCN(C(=O)c3ccc(O)c(F)c3)CC2)C1 [Example 322, {1-[1-(3-fluoro-4-hydroxybenzoyl)piperidin-4-yl]-3-[4-(5-fluoro-1H-pyrrolo[2,3-b]pyridin-4-yl)-1H-pyrazol-1-yl]azetidin-3-yl}acetonitrile]
5.0 | N#CCC1(n2cc(-c3c(F)cnc4[nH]ccc34)cn2)CN(C2CCN(C(=O)c3ccc(O)cc3F)CC2)C1 [Example 323, {1-[1-(2-fluoro-4-hydroxybenzoyl)piperidin-4-yl]-3-[4-(5-fluoro-1H-pyrrolo[2,3-b]pyridin-4-yl)-1H-pyrazol-1-yl]azetidin-3-yl}acetonitrile]
1.7 | N#CCC1(n2cc(-c3c(F)cnc4[nH]ccc34)cn2)CN(C2CCN(C(=O)c3cc(C(F)(F)F)ncc3Cl)CC2)C1 [Example 326, {1-{1-[5-chloro-2-(trifluoromethyl)isonicotinoyl]piperidin-4-yl}-3-[4-(5-fluoro-1H-pyrrolo[2,3-b]pyridin-4-yl)-1H-pyrazol-1-yl]azetidin-3-yl}acetonitrile]
4.1 | N#CCC1(n2cc(-c3c(F)cnc4[nH]ccc34)cn2)CN(C2CCN(C(=O)C3CCC(F)(F)CC3)CC2)C1 [Example 327, {1-{1-[(4,4-difluorocyclohexyl)carbonyl]piperidin-4-yl}-3-[4-(5-fluoro-1H-pyrrolo[2,3-b]pyridine-4-yl)-1H-pyrazol-1-yl]azetidin-3-yl}acetonitrile]

Structure (SMILES) | IC50 Ratio JAK2/JAK1
N#CCC1(n2ccc(-c3ncnc4[nH]ccc34)c2)CN(C2CCN(C(=O)Nc3ncccc3C(F)(F)F)CC2)C1 [Example 290, 4-{3-(cyanomethyl)-3-[3-(7H-pyrrolo[2,3-d]pyrimidin-4-yl)-1H-pyrrol-1-yl]azetidin-1-yl}-N-[3-(trifluoromethyl)pyridin-2-yl]piperidine-1-carboxamide] | 3.9
